Ki data for 3 compounds are collected here from US7786143B2, “Thiazolyl piperidine derivatives” (Hoffman-La Roche Inc., priority 2005, dated 2010).

The target in this assay is T1, histamine 3 receptor (H3R) (Homo sapiens, UniProt Q9Y5N1).
T1 construct: expressed in transfected cells; host or cells: CHO cells (HR3-CHO)
T1 sequence (Q9Y5N1 whole entry): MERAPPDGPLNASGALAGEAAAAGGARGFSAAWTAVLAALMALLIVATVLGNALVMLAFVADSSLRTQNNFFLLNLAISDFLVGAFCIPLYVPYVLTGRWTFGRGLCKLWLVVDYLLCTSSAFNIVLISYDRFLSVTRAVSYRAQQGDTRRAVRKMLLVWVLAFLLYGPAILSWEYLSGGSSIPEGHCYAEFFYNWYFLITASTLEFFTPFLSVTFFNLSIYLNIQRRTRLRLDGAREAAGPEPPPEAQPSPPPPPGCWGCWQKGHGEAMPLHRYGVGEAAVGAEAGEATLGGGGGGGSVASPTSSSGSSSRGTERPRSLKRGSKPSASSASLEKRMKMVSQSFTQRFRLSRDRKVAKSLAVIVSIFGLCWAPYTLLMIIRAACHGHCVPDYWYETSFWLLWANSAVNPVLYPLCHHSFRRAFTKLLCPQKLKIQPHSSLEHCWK
Put plainly: Binding assay with 3H-(R)α-methylhistamine, competition binding on membranes of the human HR3-CHO cell line. The following applies: competition with 3H(R)α-methylhistamine (1 nM), Ki calculated from IC50 by Cheng-Prusoff. How it is done: Binding Assay with ^3H-(R)α-methylhistamine
Saturation binding experiments were performed using HR3-CHO membranes prepared as described in Takahashi, K, Tokita, S., Kotani, H. (2003) J. Pharmacol. Exp. Therapeutics 307, 213-218.
An appropriate amount of membrane (60 to 80 μg protein/well) was incubated with increasing concentrations of ^3H(R)α-Methylhistamine di-hydrochloride (0.10 to 10 nM). Non specific binding was determined using a 200 fold excess of cold (R)α-Methylhistamine dihydrobromide (500 nM final concentration). The incubation was carried out at room temperature (in deep-well plates shaking for three hours). The final volume in each well was 250 μl. The incubation was followed by rapid filtration on GF/B filters (pre-soaked with 100 μl of 0.5% PEI in Tris 50 mM shaking at 200 rpm for two hours). The filtration was made using a cell-harvester and the filter plates were then washed five times with ice cold washing buffer containing 0.5 M NaCl. After harvesting, the plates were dried at 55° C. for 60 min, then we added scintillation fluid (Microscint 40, 40 microl in each well) and the amount of radioactivity on the filter was determined in Packard top-counter after shaking the plates for two hours at 200 rpm at room temperature.
Binding Buffer: 50 mM Tris-HCl pH 7.4 and 5 mM MgCl2×6H2O pH 7.4. Washing Buffer: 50 mM Tris-HCl pH 7.4 and 5 mM MgCl2×6H2O and 0.5 M NaCl pH 7.4.
Indirect measurement of affinity of H3R inverse agonists: twelve increasing concentrations (ranging from 10 μM to 0.3 nM) of the selected compounds were always tested in competition binding experiments using membrane of the human HR3-CHO cell line. […]
All compounds were tested at a single concentration in duplicates. […] Ki's were calculated from IC50 based on Cheng-Prusoff equation (Cheng, Y, Prusoff, W H (1973) Biochem Pharmacol 22, 3099-3108).
For `COc1ccc(-c2csc(C3CCN(C(C)C)CC3)n2)cc1` [Example 9, 1-isopropyl-4-[4-(4-methoxy-phenyl)-thiazol-2-yl]-piperidine], the Ki is 28 nM. Consider `c1cc2c(cc1-c1csc(C3CCN(C4CCCC4)CC3)n1)OCCO2` [Example 52, 1-cyclopentyl-4-[4-(2,3-dihydro-benzo[1,4]dioxin-6-yl)-thiazol-2-yl]-piperidine], for which the Ki is 123 nM. With `CC1CCCCN1C(=O)c1csc(C2CCN(C3CCCC3)CC2)n1` (stereo not drawn) [Example 68, [2-(1-cyclopentyl-piperidin-4-yl)-thiazol-4-yl]-(2-methyl-piperidin-1-yl)-methanone] the figure was 156 nM.

For orientation: Ki means the dissociation constant of the complex between target and ligand, obtained from inhibition or displacement.
